Experiments:
HIPK3(h) = target: T1, HIPK3(h) (Homo sapiens, UniProt Q9H422); assay: HIPK3 KinaseProfiler radiometric protein kinase assay; format: biochemical; conditions: 15 μM ATP, 40 minutes at room temperature
T1 construct: purchased Merck Millipore (KinaseProfiler service)
Protocol: (§1) In vitro essays were performed by the company Merck Millipore in their KinaseProfiler radiometric protein kinase assay as paid commercial service. The compounds IC50 values for inhibition of individual protein kinases were determined. Dose-response curves were plotted from inhibition data generated, each in duplicate, from 10 point serial dilutions of inhibitory compounds. Concentration of compound was plotted against % kinase activity. To generate IC50 values, the dose-response curves were fitted to a standard sigmoidal curve and IC50 values were derived by standard nonlinear regression analysis.
(§2) All tested compounds were prepared in 100% DMSO to final assay concentrations either 0.5 mM (for the concentration row A, see below) or 0.05 mM (for the concentration row B). This working stock of the compound was added to the assay well as the first component in the reaction, followed by the remaining components as detailed below. The stock solution was added to the individual assay wells in such amounts that the concentrations of the compound were either in the row A (0.001 μM, 0.003 μM, 0.01 μM, 0.03 μM, 0.1 μM, 0.3 μM, 1.0 μM, 3.0 μM, and 10.0 μM) or in the row B (0.0001 μM, 0.0003 μM, 0.001 μM, 0.003 μM, 0.01 μM, 0.03 μM, 0.1 μM, 0.3 μM, and 1.0 μM). There was no pre-incubation step between the compound and the kinase prior to initiation of the reaction.
(§3) The positive control wells contained all components of the reaction, except the compound of interest; however, DMSO (at a final concentration of 2%) was included in these wells to control for solvent effects. The blank wells contained all components of the reaction, with staurosporine as a reference inhibitor replacing the compound of interest. This abolished kinase activity and established the base-line (0% kinase activity remaining).
HIPK3(h) was diluted in the buffer (20 mM MOPS, 1 mM EDTA, 0.01% Brij-35, 5% Glycerol, 0.1% β-mercaptoethanol, 1 mg/mL BSAs) to the concentration of 1.01 mg/mL prior to addition to the reaction mix.
The above stock solution of HIPK3(h) was added to a mixture containing 8 mM MOPS pH 7.0, 0.2 mM EDTA, and 1.0 mg/mL myelin basic protein in such amount that the resulting concentration of HIPK3(h) was 6.4 nM. This mixture was added to the stock solution of the tested compound. The reaction was initiated by the addition of the MgATP mix in such amount that the resulting concentration of Mg acetate in the reaction mixture was 10 mM and [γ-^33P-ATP] (specific activity approx. 500 cpm/pmol) was 15 μM. After incubation for 40 minutes at room temperature, the reaction was stopped by the addition of 3% phosphoric acid solution. […]

DYRK2 = target: T2, DYRK2 (Homo sapiens, UniProt Q92630); assay: DYRK2 KinaseProfiler radiometric protein kinase assay; format: biochemical
T2 construct: purchased Merck Millipore (KinaseProfiler service)
T2 sequence (Q92630 1-601): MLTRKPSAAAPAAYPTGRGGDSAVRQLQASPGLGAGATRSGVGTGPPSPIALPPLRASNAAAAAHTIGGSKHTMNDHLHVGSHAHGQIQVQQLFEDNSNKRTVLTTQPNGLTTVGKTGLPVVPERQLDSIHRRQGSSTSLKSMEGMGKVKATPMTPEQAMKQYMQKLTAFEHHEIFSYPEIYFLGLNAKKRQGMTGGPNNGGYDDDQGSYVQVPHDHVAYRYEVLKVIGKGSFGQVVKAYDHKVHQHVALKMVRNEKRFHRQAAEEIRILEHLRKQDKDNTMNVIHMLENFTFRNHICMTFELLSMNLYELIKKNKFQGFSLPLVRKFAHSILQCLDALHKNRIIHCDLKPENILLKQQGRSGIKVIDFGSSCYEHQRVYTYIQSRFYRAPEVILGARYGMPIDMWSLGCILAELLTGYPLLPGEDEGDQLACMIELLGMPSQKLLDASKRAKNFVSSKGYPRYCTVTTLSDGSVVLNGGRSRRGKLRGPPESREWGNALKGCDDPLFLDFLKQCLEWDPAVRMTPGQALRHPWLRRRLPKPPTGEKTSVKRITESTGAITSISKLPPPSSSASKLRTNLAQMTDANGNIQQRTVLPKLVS
Protocol: as §1, §2, §3

T1 sequence (Q9H422 whole entry): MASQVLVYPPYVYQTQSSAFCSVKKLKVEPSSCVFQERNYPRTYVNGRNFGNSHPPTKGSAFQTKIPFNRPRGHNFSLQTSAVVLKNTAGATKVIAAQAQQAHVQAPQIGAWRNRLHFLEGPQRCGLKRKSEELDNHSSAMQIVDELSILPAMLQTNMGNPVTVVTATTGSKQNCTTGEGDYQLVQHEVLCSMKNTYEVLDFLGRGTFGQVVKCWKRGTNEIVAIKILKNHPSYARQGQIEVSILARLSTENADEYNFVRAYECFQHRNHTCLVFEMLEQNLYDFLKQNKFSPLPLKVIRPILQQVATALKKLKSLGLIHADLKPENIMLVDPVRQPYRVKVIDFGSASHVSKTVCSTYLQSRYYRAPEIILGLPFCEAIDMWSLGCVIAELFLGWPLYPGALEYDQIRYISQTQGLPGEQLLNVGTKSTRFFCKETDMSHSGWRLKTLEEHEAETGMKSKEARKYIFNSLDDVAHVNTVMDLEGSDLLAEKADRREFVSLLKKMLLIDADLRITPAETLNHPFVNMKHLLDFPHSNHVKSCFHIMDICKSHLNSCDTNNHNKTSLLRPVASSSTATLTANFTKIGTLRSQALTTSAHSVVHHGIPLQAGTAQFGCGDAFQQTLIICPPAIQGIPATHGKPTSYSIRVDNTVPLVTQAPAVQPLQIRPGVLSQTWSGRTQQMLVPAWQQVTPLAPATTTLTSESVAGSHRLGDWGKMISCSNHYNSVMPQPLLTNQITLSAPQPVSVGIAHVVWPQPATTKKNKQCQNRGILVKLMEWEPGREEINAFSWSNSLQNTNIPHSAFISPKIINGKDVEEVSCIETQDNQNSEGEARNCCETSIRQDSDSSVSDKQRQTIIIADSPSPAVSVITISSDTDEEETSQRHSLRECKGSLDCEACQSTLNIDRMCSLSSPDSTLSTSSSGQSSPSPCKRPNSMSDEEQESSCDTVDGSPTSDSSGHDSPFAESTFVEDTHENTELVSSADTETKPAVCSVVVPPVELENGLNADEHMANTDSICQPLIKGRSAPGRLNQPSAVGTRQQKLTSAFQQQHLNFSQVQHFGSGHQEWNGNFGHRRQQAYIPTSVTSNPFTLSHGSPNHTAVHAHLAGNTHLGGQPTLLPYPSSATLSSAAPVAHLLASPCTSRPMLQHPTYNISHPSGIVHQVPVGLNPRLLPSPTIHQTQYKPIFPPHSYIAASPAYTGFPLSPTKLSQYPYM

## Cn1cc(-c2ccc3occ(-c4ccccc4)c3n2)cn1 [Preparative Example 6A]
HIPK3(h)
  IC50: < 5 µM
DYRK2
  IC50: < 5 µM

## c1ccc(-c2coc3ccc(-c4cn[nH]c4)nc23)cc1 [Preparative Example 9]
HIPK3(h)
  IC50: < 1 µM
DYRK2
  IC50: < 5 µM

Reference: patent publication US9902733B2, “Furopyridines as inhibitors of protein kinases” (MASARYKOVA UNIVERZITA, priority 2014, dated 2018)
